HELM strings list units from the 5' end as sugar, base in round brackets, then linkage (d deoxyribose, r ribose, m 2'-O-methyl, p phosphodiester). Strings are as the collection lists them; they lack the last nucleoside at the 3' end of the tested compound. [moe] = 2'-O-(2-methoxyethyl) (MOE); [sp] = phosphorothioate linkage; [m5C] = 5-methylcytosine
Target: C9ORF72
Test: mouse, dose not given
Details: ASO

Compared with “RNA1{[moe]([m5C])[sp].[moe](G)p.[moe](G)p.[moe]([m5C])[sp].d([m5C])[sp].d([m5C])[sp].d([m5C])[sp].d(T)[sp].d(A)[sp].d(G)[sp].d([m5C])[sp].d(G)[sp].[moe]([m5C])p.[moe](G)p.[moe]([m5C])p.[moe](G)[sp].[moe](A)}$$$$ (last 3' nucleoside missing)”, “RNA1{[moe]([m5C])[sp].[moe](G)p.[moe](G)p.[moe]([m5C])p.[moe]([m5C])p.[moe]([m5C])[sp].d([m5C])[sp].d(T)[sp].d(A)[sp].d(G)[sp].d([m5C])[sp].d(G)[sp].d([m5C])[sp].d(G)[sp].[moe]([m5C])p.[moe](G)[sp].[moe](A)}$$$$ (last 3' nucleoside missing)” is lower in 3 h FOB score: 7 score 0-7 for the first, 4.5 score 0-7 for the second.

Going from “RNA1{[moe]([m5C])[sp].[moe](G)p.[moe](G)p.[moe]([m5C])p.[moe]([m5C])p.[moe]([m5C])p.d([m5C])[sp].d(T)[sp].d(A)[sp].d(G)[sp].d([m5C])[sp].d(G)[sp].d([m5C])[sp].d(G)[sp].d([m5C])[sp].[moe](G)p.[moe](A)[sp].[moe]([m5C])}$$$$ (last 3' nucleoside missing)” to “RNA1{[moe]([m5C])[sp].[moe](G)p.[moe](G)p.[moe]([m5C])p.[moe]([m5C])p.[moe]([m5C])p.d([m5C])[sp].d(T)[sp].d(A)[sp].d(G)[sp].d([m5C])[sp].d(G)[sp].d([m5C])[sp].d(G)[sp].d([m5C])[sp].d(G)[sp].[moe](A)p.[moe]([m5C])[sp].[moe](T)}$$$$ (last 3' nucleoside missing)”, the 3 h FOB score falls from 3 score 0-7 to 1.25 score 0-7.

Compared with “RNA1{[moe]([m5C])[sp].[moe](G)p.[moe](G)p.[moe]([m5C])p.[moe]([m5C])p.d([m5C])[sp].d([m5C])[sp].d(T)[sp].d(A)[sp].d(G)[sp].d([m5C])[sp].d(G)[sp].d([m5C])[sp].d(G)[sp].[moe]([m5C])p.[moe](G)p.[moe](A)[sp].[moe]([m5C])}$$$$ (last 3' nucleoside missing)”, “RNA1{[moe]([m5C])[sp].[moe](G)p.[moe](G)p.[moe]([m5C])p.d([m5C])[sp].d([m5C])[sp].d([m5C])[sp].d(T)[sp].d(A)[sp].d(G)[sp].d([m5C])[sp].d(G)[sp].d([m5C])[sp].[moe](G)p.[moe]([m5C])p.[moe](G)p.[moe](A)[sp].[moe]([m5C])}$$$$ (last 3' nucleoside missing)” is higher in 3 h FOB score: 4 score 0-7 for the first, 5.25 score 0-7 for the second.

Going from “RNA1{[moe]([m5C])[sp].[moe](G)p.[moe](G)p.[moe]([m5C])p.d([m5C])[sp].d([m5C])[sp].d([m5C])[sp].d(T)[sp].d(A)[sp].d(G)[sp].d([m5C])[sp].d(G)[sp].d([m5C])[sp].d(G)[sp].[moe]([m5C])p.[moe](G)p.[moe](A)p.[moe]([m5C])[sp].[moe](T)}$$$$ (last 3' nucleoside missing)” to “RNA1{[moe]([m5C])[sp].[moe](T)p.[moe](A)p.[moe](G)[sp].d([m5C])[sp].d(G)[sp].d([m5C])[sp].d(G)[sp].d([m5C])[sp].d(G)[sp].d(A)[sp].d([m5C])[sp].[moe](T)p.[moe]([m5C])p.[moe]([m5C])p.[moe](T)[sp].[moe](G)}$$$$ (last 3' nucleoside missing)”, the 3 h FOB score rises from 1.75 score 0-7 to 3.25 score 0-7.

Compared with “RNA1{[moe]([m5C])[sp].[moe](T)p.[moe](G)p.[moe](G)p.[moe](T)p.[moe](T)p.[moe](A)p.d(A)[sp].d(T)[sp].d([m5C])[sp].d(T)[sp].d(T)[sp].d(T)[sp].d(A)[sp].d(T)[sp].d([m5C])[sp].d(A)[sp].[moe](G)[sp].[moe](G)}$$$$ (last 3' nucleoside missing)”, “RNA1{[moe]([m5C])[sp].[moe](T)p.[moe](G)p.[moe](G)p.[moe](T)p.[moe](T)p.d(A)[sp].d(A)[sp].d(T)[sp].d([m5C])[sp].d(T)[sp].d(T)[sp].d(T)[sp].d(A)[sp].d(T)[sp].d([m5C])[sp].[moe](A)p.[moe](G)[sp].[moe](G)}$$$$ (last 3' nucleoside missing)” is lower in 3 h FOB score: 2.25 score 0-7 for the first, 0 score 0-7 for the second.

First: RNA1{[moe]([m5C])[sp].[moe](T)p.[moe](G)p.[moe](G)p.d(T)[sp].d(T)[sp].d(A)[sp].d(A)[sp].d(T)[sp].d([m5C])[sp].d(T)[sp].d(T)[sp].d(T)[sp].d(A)[sp].[moe](T)p.[moe]([m5C])p.[moe](A)p.[moe](G)[sp].[moe](G)}$$$$ (last 3' nucleoside missing)
Second: RNA1{[moe]([m5C])[sp].[moe](T)p.[moe](G)p.[moe]([m5C])p.[moe](G)p.[moe](A)p.[moe](T)p.d([m5C])[sp].d([m5C])[sp].d([m5C])[sp].d([m5C])[sp].d(A)[sp].d(T)[sp].d(T)[sp].d([m5C])[sp].d([m5C])[sp].d(A)[sp].[moe](G)[sp].[moe](T)}$$$$ (last 3' nucleoside missing)
The 3 h FOB score of the first is lower: 0 score 0-7 for the first, 0.25 score 0-7 for the second.

First: RNA1{[moe]([m5C])[sp].[moe](T)p.[moe](G)p.[moe]([m5C])p.[moe](G)p.[moe](A)p.d(T)[sp].d([m5C])[sp].d([m5C])[sp].d([m5C])[sp].d([m5C])[sp].d(A)[sp].d(T)[sp].d(T)[sp].d([m5C])[sp].d([m5C])[sp].[moe](A)p.[moe](G)[sp].[moe](T)}$$$$ (last 3' nucleoside missing)
Second: RNA1{[moe]([m5C])[sp].[moe](T)p.[moe](G)p.[moe]([m5C])p.d(G)[sp].d(A)[sp].d(T)[sp].d([m5C])[sp].d([m5C])[sp].d([m5C])[sp].d([m5C])[sp].d(A)[sp].d(T)[sp].d(T)[sp].[moe]([m5C])p.[moe]([m5C])p.[moe](A)p.[moe](G)[sp].[moe](T)}$$$$ (last 3' nucleoside missing)
The 3 h FOB score of the first is lower: 0.25 score 0-7 for the first, 1.75 score 0-7 for the second.

First: RNA1{[moe]([m5C])[sp].[moe](T)p.[moe](G)p.d(G)[sp].d(T)[sp].d(T)[sp].d(A)[sp].d(A)[sp].d(T)[sp].d([m5C])[sp].d(T)[sp].d(T)[sp].d(T)[sp].[moe](A)p.[moe](T)p.[moe]([m5C])p.[moe](A)p.[moe](G)[sp].[moe](G)}$$$$ (last 3' nucleoside missing)
Second: RNA1{[moe]([m5C])[sp].[moe](T)p.[moe](G)p.d([m5C])[sp].d(G)[sp].d(A)[sp].d(T)[sp].d([m5C])[sp].d([m5C])[sp].d([m5C])[sp].d([m5C])[sp].d(A)[sp].d(T)[sp].[moe](T)p.[moe]([m5C])p.[moe]([m5C])p.[moe](A)p.[moe](G)[sp].[moe](T)}$$$$ (last 3' nucleoside missing)
The 3 h FOB score of the first is lower: 0 score 0-7 for the first, 1.75 score 0-7 for the second.

Going from “RNA1{[moe]([m5C])[sp].[moe]([m5C])[sp].[moe]([m5C])[sp].[moe](G)[sp].[moe](G)[sp].d([m5C])[sp].d([m5C])[sp].d([m5C])[sp].d([m5C])[sp].d(T)[sp].d(A)[sp].d(G)[sp].d([m5C])[sp].d(G)[sp].d([m5C])[sp].[moe](G)[sp].[moe]([m5C])[sp].[moe](G)[sp].[moe](A)}$$$$ (last 3' nucleoside missing)” to “RNA1{[moe]([m5C])[sp].[moe]([m5C])p.[moe](G)p.[moe](G)p.[moe]([m5C])p.[moe]([m5C])p.[moe]([m5C])p.d([m5C])[sp].d(T)[sp].d(A)[sp].d(G)[sp].d([m5C])[sp].d(G)[sp].d([m5C])[sp].d(G)[sp].d([m5C])[sp].d(G)[sp].[moe](A)[sp].[moe]([m5C])}$$$$ (last 3' nucleoside missing)”, the 3 h FOB score falls from 6 score 0-7 to 2 score 0-7.

Compared with “RNA1{[moe]([m5C])[sp].[moe]([m5C])p.[moe](G)p.[moe](G)p.[moe]([m5C])p.[moe]([m5C])p.d([m5C])[sp].d([m5C])[sp].d(T)[sp].d(A)[sp].d(G)[sp].d([m5C])[sp].d(G)[sp].d([m5C])[sp].d(G)[sp].[moe]([m5C])p.[moe](G)[sp].[moe](A)}$$$$ (last 3' nucleoside missing)”, “RNA1{[moe]([m5C])[sp].[moe]([m5C])p.[moe](G)p.[moe](G)p.[moe]([m5C])p.[moe]([m5C])p.d([m5C])[sp].d([m5C])[sp].d(T)[sp].d(A)[sp].d(G)[sp].d([m5C])[sp].d(G)[sp].d([m5C])[sp].d(G)[sp].d([m5C])[sp].[moe](G)p.[moe](A)[sp].[moe]([m5C])}$$$$ (last 3' nucleoside missing)” is lower in 3 h FOB score: 5.75 score 0-7 for the first, 3.5 score 0-7 for the second.

Compared with “RNA1{[moe]([m5C])[sp].[moe]([m5C])p.[moe](G)p.[moe](G)p.[moe]([m5C])p.d([m5C])[sp].d([m5C])[sp].d([m5C])[sp].d(T)[sp].d(A)[sp].d(G)[sp].d([m5C])[sp].d(G)[sp].d([m5C])[sp].[moe](G)p.[moe]([m5C])p.[moe](G)[sp].[moe](A)}$$$$ (last 3' nucleoside missing)”, “RNA1{[moe]([m5C])[sp].[moe]([m5C])p.[moe](G)p.[moe](G)p.d([m5C])[sp].d([m5C])[sp].d([m5C])[sp].d([m5C])[sp].d(T)[sp].d(A)[sp].d(G)[sp].d([m5C])[sp].d(G)[sp].[moe]([m5C])p.[moe](G)p.[moe]([m5C])p.[moe](G)[sp].[moe](A)}$$$$ (last 3' nucleoside missing)” is higher in 3 h FOB score: 4.5 score 0-7 for the first, 6 score 0-7 for the second.

Going from “RNA1{[moe]([m5C])[sp].[moe]([m5C])p.[moe](G)p.[moe](G)p.d([m5C])[sp].d([m5C])[sp].d([m5C])[sp].d([m5C])[sp].d(T)[sp].d(A)[sp].d(G)[sp].d([m5C])[sp].d(G)[sp].d([m5C])[sp].[moe](G)p.[moe]([m5C])p.[moe](G)p.[moe](A)[sp].[moe]([m5C])}$$$$ (last 3' nucleoside missing)” to “RNA1{[moe]([m5C])[sp].[moe]([m5C])p.[moe](G)p.d(G)[sp].d([m5C])[sp].d([m5C])[sp].d([m5C])[sp].d([m5C])[sp].d(T)[sp].d(A)[sp].d(G)[sp].d([m5C])[sp].d(G)[sp].[moe]([m5C])p.[moe](G)p.[moe]([m5C])p.[moe](G)p.[moe](A)[sp].[moe]([m5C])}$$$$ (last 3' nucleoside missing)”, the 3 h FOB score falls from 4.25 score 0-7 to 3.25 score 0-7.

“RNA1{[moe]([m5C])[sp].[moe]([m5C])p.[moe](T)p.[moe](A)[sp].d(G)[sp].d([m5C])[sp].d(G)[sp].d([m5C])[sp].d(G)[sp].d([m5C])[sp].d(G)[sp].d(A)[sp].[moe]([m5C])p.[moe](T)p.[moe]([m5C])p.[moe]([m5C])[sp].[moe](T)}$$$$ (last 3' nucleoside missing)” gave a 3 h FOB score of 3 score 0-7.
